{"source": "patent US20250051732A1", "about": "“KIDNEY-ON-A-CHIP COMPRISING RENAL TUBULE CULTURE PART AND INTERSTITIUM CULTURE PART” (Seoul National University Hospital, priority 2021, published 2025)", "format_in_all_cases": "cell-based, human", "key": {"[1]": {"system": "vascular endothelial growth factor (VEGF)", "assay": "Renal fibrosis-on-a-chip: VEGF real-time PCR", "conditions": "two renal fibrosis-on-chips (patients GFP >90, 60 to 90), TGF-β 5 ng/ml alone or with TGF-β inhibitor 10 μM, 24 hours, FIG. 20", "method": "An experiment was performed in the same manner as in Experimental Example 3-1, but real-time PCR was performed to examine whether the vascular endothelial growth factor (VEGF) can be used as an evaluation index.\nSpecifically, for each of the control group, TGF-β group, and TGF-β inhibition group of each of the two types of kidney-on-chips manufactured from a patient with GFP >90 and a patient with GFP 60 to 90 in Experimental Example 3-1, RNA was isolated from all of the renal tubular epithelial cells (HK-2 cells), fibroblasts, and vascular endothelial cells (GFP-HUVEC) co-cultured in each kidney-on-a-chip, cDNA was synthesized from this according to a method known in the art and mixed with VEGF primers and SYBER green, and the expression level of VEGF was measured using real-time PCR equipment (REAL TIME PCR SYSTEM, Applied Biosystems ViiA7). After measurement, the result values for each group measured using the equipment were compared to the values for the control group of each of the […] of kidney-on-chips to comparatively analyze the difference in expression level of VEGF, and the results are as illustrated in FIG. 20."}, "[2]": {"system": "vascular endothelial cells (GFP-HUVEC) in interstitium culture part", "assay": "Renal fibrosis-on-a-chip: degree of angiogenesis (length and diameter of blood vessels, ImageJ)", "conditions": "24 hours", "method": "Through comparative analysis of an organ-on-a-chip mimicking normal kidney tissue and an organ-on-a-chip mimicking renal fibrosis, evaluation indices for screening for renal fibrosis therapeutic agents were deduced in the following manner. At this time, human-derived renal fibroblasts, vascular endothelial cells (GFP-HUVEC), and renal tubular epithelial cells were seeded in the kidney-on-a-chip (FIG. 12A) manufactured in Example 3 in the same manner as in A. of Example 3, and cultured to manufacture a kidney-on-a-chip. However, two types of renal fibroblasts of renal fibroblasts derived from normal kidney tissue (hereinafter referred to as normal kidney-on-a-chip) and renal fibroblasts derived from renal fibrosis kidney tissue (hereinafter referred to as renal fibrosis-on-a-chip) were used as the renal fibroblasts to manufacture two types of kidney-on-chips.\nThe two types of kidney-on-chips were divided into the control group (control in FIGS. 13A to 13D) in which each of the two types of kidney-on-chips was not treated with TGF-β and the TGF-β group (TGF β in FIGS. 13A to 13D) in which each of the two types of kidney-on-chips was treated with TGF-β unlike Example 3, and immunofluorescence staining was performed in the same manner as in B. of Example 3. At this time, the renal tubular epithelial cells in the renal tubule culture part of each kidney-on-a-chip were treated with CCK8 antibody and α-SMA antibody, respectively, their fluorescence expression was photographed using a confocal microscope (MICROSCOPE CONFOCAL LASER SCANNING ZEISS LSM 710), the mean fluorescence intensity of each image was measured using the analysis program of the confocal microscope, then the result values of CCK8 and α-SMA measured for each group were compared to the values for the control group (control) to comparatively analyze the difference in expression levels, and the results are as illustrated in FIGS. 13A to 13D.\nIt is more reasonable to compare the kidney-on-a-chip of Example 3 to the pathological tissue of a patient from which kidney cells were obtained rather than comparing the kidney-on-a-chip to a laboratory animal model of renal fibrosis, so the evaluation indices for screening for renal fibrosis therapeutic agents were deduced by manufacturing a kidney-on-a-chip and performing comparative analysis in the same manner as in Experimental Example 1. […] In this experiment, three types of kidney-on-chips were manufactured: the control group (control in FIGS. 15 to 20) not treated with TGF-β, the TGF-β group (TGF β in FIGS. 15 to 20) treated with TGF-β in Experimental Example 1, and a TGF-β inhibition group (TGF β inhibitor in FIGS. 15 to 20) that was treated with TGF-β at 5 ng/ml and a TGF-β inhibitor at 10 μM and reacted for 24 hours.\nFor the three types of kidney-on-chips of the control group, the TGF-β group, and the TGF-β inhibition group, vascular endothelial cells (GFP-HUVEC) present in the vascular endothelial cell region of the interstitium culture part were photographed using a confocal microscope (MICROSCOPE CONFOCAL LASER SCANNING ZEISS LSM 710). […] The result values measured for each of the control group, TGF-β group, and TGF-β inhibition group were compared to the values for the control group according to each index to comparatively analyze the length and diameter of thin blood vessels and the length and diameter of thick blood vessels, and the results are as illustrated in FIGS. 17 to 18."}, "[3]": {"system": "kidney injury molecule-1 (KIM-1)", "assay": "Renal fibrosis-on-a-chip: KIM-1 ELISA of culture solution", "conditions": "three renal fibrosis-on-chips (patients GFP >90, 60 to 90, <60), TGF-β 5 ng/ml alone or with TGF-β inhibitor 10 μM, 24 hours, FIG. 19", "method": "An experiment was performed in the same manner as in Experimental Example 2, but enzyme-linked immunosorbent assay (ELISA assay) was performed to examine whether kidney injury molecule-1 (KIM-1) could be used as an evaluation index.\nSpecifically, renal fibroblasts obtained from each of three patients having GFP >90, GFP 60 to 90, and GFP <60 and purchased vascular endothelial cells (GFP-HUVEC) and renal tubular epithelial cells (HK-2 cells) were co-cultured in the vascular endothelial cell medium in the same manner as in Experimental Example 1 to manufacture three types of kidney-on-chips. Next, the medium was collected for each of the control group, TGF-β group, and TGF-β inhibition group of each of the three types of kidney-on-chips, the medium of each group was diluted at an appropriate ratio, and then ELISA analysis was performed according to the instructions of the KIM-1 (human) ELISA kit (Enzo Life Sciences, Inc, #ADI-900-226-0001). Afterwards, the result values for each group were measured at 450 nm using ELISA READER (SPECTRAMAX PLUS384), each measured result value was compared to the value for the control group of each of the three types of kidney-on-chips to comparatively analyze the difference in expression level of KIM-1, and the results are as illustrated in FIG. 19."}, "[4]": {"system": "normal kidney-on-a-chip (renal tubular epithelial cells (HK-2 cells), renal fibroblasts derived from normal kidney tissue, GFP-HUVEC)", "assay": "Normal kidney-on-a-chip, TGF-β stimulation: CCK8 and α-SMA immunofluorescence and blood vessels", "conditions": "TGF-β 5 ng/ml, 24 hours", "method": "(§1) Specifically, vascular endothelial cells (GFP-HUVEC) at 2000×10^4/ml and fibrin gel at 10 mg/ml were seeded in the vascular endothelial cell region (yellow region in FIG. 12B, Gel A) of the interstitium culture part of the kidney-on-a-chip manufactured above as 1 in FIG. 12C and cultured at room temperature for 2 to 3 minutes. Next, primary human renal fibroblasts derived from a patient with renal failure at 400×10^4/ml and fibrin gel at 10 mg/ml were seeded in the renal fibroblast region (red region in FIG. 12B, Gel C) of the interstitium culture part of the kidney-on-a-chip manufactured above as 2 in FIG. 12C and cultured at room temperature for 2 to 3 minutes. Afterwards, 5 to 10 μl of the human renal tubular epithelial cell (Human Kidney-2 cell, HK-2 cell) suspension at 300×10^4/ml was seeded in the renal tubule culture part (blue region in FIG. 12B, Gel B) of the kidney-on-a-chip as 3 in FIG. 12C, tilted 90° in the desired direction (upward in this experiment), and cultured at 37° C. for 30 minutes. After culture, each region of the kidney-on-a-chip was filled with 150 μl of the same medium as that in A. of Example 2-2. The renal tubular epithelial cells, vascular endothelial cells, renal fibroblasts and the like were seeded, cultured for 3 days, then treated with TGF-β at 5 ng/ml and TGF-β at 5 ng/ml and a TGF-β inhibitor at 10 μM, respectively, and reacted for 24 hours.\nThe following immunofluorescence staining was performed to examine whether the kidney-on-a-chip manufactured above normally mimics a living body. Cells in each of the renal tubule culture part and interstitium culture part of the kidney-on-a-chip were fixed with 4% paraformaldehyde fixative (Biosesang, #P2031) at room temperature for 20 minutes, washed with 1×PBS, then treated with 0.2% Triton-X (Sigma, #T9284), and cultured at room temperature for 20 minutes. The cells were then treated with 3% BSA, reacted at room temperature for 40 minutes, and then washed with 1×PBS. […]"}, "[5]": {"system": "renal tubular epithelial cells (HK-2 cells) in renal fibrosis-on-a-chip", "assay": "Renal fibrosis-on-a-chip: CCK8 and α-SMA immunofluorescence in renal tubule culture part", "conditions": "24 hours", "method": "as §1\nThe following immunofluorescence staining was performed to examine whether the kidney-on-a-chip manufactured above normally mimics a living body. Cells in each of the renal tubule culture part and interstitium culture part of the kidney-on-a-chip were fixed with 4% paraformaldehyde fixative (Biosesang, #P2031) at room temperature for 20 minutes, washed with 1×PBS, then treated with 0.2% Triton-X (Sigma, #T9284), and cultured at room temperature for 20 minutes. The cells were then treated with 3% BSA, reacted at room temperature for 40 minutes, and then washed with 1×PBS. Next, the cells were treated with primary antibodies (α-SMA antibody (diluted at 1:100) for renal fibroblasts and cytokeratin 8 (CCK8) antibody (diluted at 1:200) for renal tubular epithelial cells) diluted with 1% BSA, reacted at room temperature for 2 days, and washed again with 1×PBS. After washing, the cells were treated with secondary antibodies against each marker diluted with 1% BSA at 1:100 and the antibody Hoechst diluted with 1% BSA at 1:250, reacted at room temperature for 3 hours, washed again with 1×PBS, and then photographed using a confocal microscope, and the results are illustrated in FIG. 12D. […]"}, "[6]": {"conditions": "renal tubular epithelial cell region, vs control, FIG. 13A, 13B"}, "[7]": {"conditions": "renal fibrosis-on-a-chip (Experimental Example 1), renal tubular epithelial cell region, TGF-β 5 ng/ml, vs control, FIG. 13C, 13D"}, "[8]": {"conditions": "three renal fibrosis-on-chips (patients GFR >90, 60-90, <60), TGF-β 5 ng/ml alone or with TGF-β inhibitor 10 μM, FIG. 15, 16"}}}
{"substance": "transforming growth factor-β [TGF-β]", "values": [{"measurement": "expression level of VEGF", "setting": "[1]", "result": "increased"}, {"measurement": "number of thin blood vessels", "setting": "[2]; renal fibrosis-on-a-chip (Experimental Example 1), vascular endothelial cell region, TGF-β 5 ng/ml", "result": "increased"}, {"measurement": "total length of thick blood vessels (50 μm or more)", "setting": "[2]; three renal fibrosis-on-chips, TGF-β 5 ng/ml alone or with TGF-β inhibitor 10 μM, FIG. 17A", "result": "decreased"}, {"measurement": "diameter of thick blood vessels", "setting": "[2]; three renal fibrosis-on-chips, TGF-β 5 ng/ml alone or with TGF-β inhibitor 10 μM, FIG. 17B", "result": "decreased"}, {"measurement": "total length of thin blood vessels (less than 50 μm)", "setting": "[2]; three renal fibrosis-on-chips, TGF-β 5 ng/ml alone or with TGF-β inhibitor 10 μM, FIG. 18A", "result": "increased"}, {"measurement": "diameter of thin blood vessels", "setting": "[2]; three renal fibrosis-on-chips, TGF-β 5 ng/ml alone or with TGF-β inhibitor 10 μM, FIG. 18B", "result": "decreased"}, {"measurement": "expression level of KIM-1 in the culture solution", "setting": "[3]", "result": "increased"}, {"measurement": "expression level of CCK8", "setting": "[4]; [6]", "result": "decreased"}, {"measurement": "expression level of α-SMA", "setting": "[4]; [6]", "result": "increased"}, {"measurement": "number of thin blood vessels", "setting": "[4]; vascular endothelial cell region of interstitium culture part", "result": "increased"}, {"measurement": "expression level of CCK8", "setting": "[5]; [7]", "result": "decreased"}, {"measurement": "expression level of α-SMA", "setting": "[5]; [7]", "result": "increased"}, {"measurement": "expression level of CCK8", "setting": "[5]; [8]", "result": "decreased"}, {"measurement": "expression level of α-SMA", "setting": "[5]; [8]", "result": "increased"}]}
